# Target: human PDE4D catalytic domain (UniProt no. Q08499) (Homo sapiens (Human), UniProt Q08499)
# Test: PDE4 assay (TR-FRET, FAM-cAMP cleavage)
# Format: biochemical
# Settings: human PDE4D catalytic domain; molar concentration giving 50% inhibition of substrate cleavage; read-out: PDE4 IC50 range
# Summary of the method: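 Read-out is time-resolved FRET from Tb donor to FAM-AMP captured on trivalent-metal nanoparticles added to stop the reaction. Substrate was a mix of plain and FAM-labelled cAMP, cleaved by human PDE4D catalytic domain ([…]) with titrated compound; IC50 ranges (nM) versus controls.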
# Sequence of human PDE4D catalytic domain (Q08499 380-740 limits assumed): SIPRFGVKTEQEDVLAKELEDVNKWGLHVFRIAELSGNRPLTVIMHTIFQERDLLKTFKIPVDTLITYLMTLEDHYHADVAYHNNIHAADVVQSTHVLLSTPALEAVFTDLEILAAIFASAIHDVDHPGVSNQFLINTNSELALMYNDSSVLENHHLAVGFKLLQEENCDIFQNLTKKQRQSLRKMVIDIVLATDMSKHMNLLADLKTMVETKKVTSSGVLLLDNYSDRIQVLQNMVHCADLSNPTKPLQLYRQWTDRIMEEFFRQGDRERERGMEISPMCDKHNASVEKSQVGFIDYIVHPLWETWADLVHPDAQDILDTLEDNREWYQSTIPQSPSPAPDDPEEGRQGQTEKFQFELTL
row,Structure (SMILES),IC50 [nM]
1,"CCc1nn(CCCOC(=O)c2cc(Cl)ccc2OC)c2c1C(=O)NCC1(CCOCC1)C2 [Example 93, 3-(3-ethyl-4-oxo-spiro[6,8-dihydro-5H-pyrazolo[4,3-c]azepine-7,4′-tetrahydropyran]-1-yl)propyl 5-chloro-2-methoxy-benzoate]",< 100
2,"CCc1nn(CCCOC(=O)c2cccc(Cl)c2OC)c2c1C(=O)NCC1(CCOCC1)C2 [Example 94, 3-(3-ethyl-4-oxo-spiro[6,8-dihydro-5H-pyrazolo[4,3-c]azepine-7,4′-tetrahydropyran]-1-yl)propyl 3-chloro-2-methoxy-benzoate]",< 100
3,"CCc1nn(CCCOC(=O)c2ccccc2C(F)(F)F)c2c1C(=O)NCC1(CCOCC1)C2 [Example 95, 3-(3-ethyl-4-oxo-spiro[6,8-dihydro-5H-pyrazolo[4,3-c]azepine-7,4′-tetrahydropyran]-1-yl)propyl 2-(trifluoromethyl)benzoate]",< 100
4,"CCc1nn(CCCOC(=O)c2cccc(C(F)(F)F)c2)c2c1C(=O)NCC1(CCOCC1)C2 [Example 96, 3-(3-ethyl-4-oxo-spiro[6,8-dihydro-5H-pyrazolo[4,3-c]azepine-7,4′-tetrahydropyran]-1-yl)propyl 3-(trifluoromethyl)benzoate]",< 100
5,"CCc1nn(CCCOC(=O)c2ccc(C(F)(F)F)cc2)c2c1C(=O)NCC1(CCOCC1)C2 [Example 97, 3-(3-ethyl-4-oxo-spiro[6,8-dihydro-5H-pyrazolo[4,3-c]azepine-7,4′-tetrahydropyran]-1-yl)propyl 4-(trifluoromethyl)benzoate]",< 100
6,"CCc1nn(CCCOC(=O)c2ccc(S(C)(=O)=O)cc2)c2c1C(=O)NCC1(CCOCC1)C2 [Example 98, 3-(3-ethyl-4-oxo-spiro[6,8-dihydro-5H-pyrazolo[4,3-c]azepine-7,4′-tetrahydropyran]-1-yl)propyl 4-methylsulfonylbenzoate]",< 100
7,"CCc1nn(CCCOC(=O)c2cccc(S(C)(=O)=O)c2)c2c1C(=O)NCC1(CCOCC1)C2 [Example 99, 3-(3-ethyl-4-oxo-spiro[6,8-dihydro-5H-pyrazolo[4,3-c]azepine-7,4′-tetrahydropyran]-1-yl)propyl 3-methylsulfonylbenzoate]",< 100
8,"CCc1nn(CCCOC(=O)c2ccccc2S(C)(=O)=O)c2c1C(=O)NCC1(CCOCC1)C2 [Example 100, 3-(3-ethyl-4-oxo-spiro[6,8-dihydro-5H-pyrazolo[4,3-c]azepine-7,4′-tetrahydropyran]-1-yl)propyl 2-methylsulfonylbenzoate]",< 100
9,"CCc1nn(CCCOC(=O)c2ccc(S(N)(=O)=O)cc2)c2c1C(=O)NCC1(CCOCC1)C2 [Example 101, 3-(3-ethyl-4-oxo-spiro[6,8-dihydro-5H-pyrazolo[4,3-c]azepine-7,4′-tetrahydropyran]-1-yl)propyl 4-sulfamoylbenzoate]",< 100
10,"CCc1nn(CCCOC(=O)c2cccc(S(N)(=O)=O)c2)c2c1C(=O)NCC1(CCOCC1)C2 [Example 102, 3-(3-ethyl-4-oxo-spiro[6,8-dihydro-5H-pyrazolo[4,3-c]azepine-7,4′-tetrahydropyran]-1-yl)propyl 3-sulfamoylbenzoate]",< 100
11,"CCc1nn(CCCOC(=O)c2ccc(C)c(C(F)(F)F)c2)c2c1C(=O)NCC1(CCOCC1)C2 [Example 103, 3-(3-ethyl-4-oxo-spiro[6,8-dihydro-5H-pyrazolo[4,3-c]azepine-7,4′-tetrahydropyran]-1-yl)propyl 4-methyl-3-(trifluoromethyl)benzoate]",< 100
12,"CCc1nn(CCCOC(=O)c2cccc(C(F)(F)F)c2C)c2c1C(=O)NCC1(CCOCC1)C2 [Example 104, 3-(3-ethyl-4-oxo-spiro[6,8-dihydro-5H-pyrazolo[4,3-c]azepine-7,4′-tetrahydropyran]-1-yl)propyl 2-methyl-3-(trifluoromethyl)benzoate]",< 100
13,"CCc1nn(CCCOC(=O)c2cc(C(F)(F)F)ccc2C)c2c1C(=O)NCC1(CCOCC1)C2 [Example 105, 3-(3-ethyl-4-oxo-spiro[6,8-dihydro-5H-pyrazolo[4,3-c]azepine-7,4′-tetrahydropyran]-1-yl)propyl 2-methyl-5-(trifluoromethyl)benzoate]",< 100
14,"CCc1nn(CCCOC(=O)c2cccc(F)c2C(F)(F)F)c2c1C(=O)NCC1(CCOCC1)C2 [Example 106, 3-(3-ethyl-4-oxo-spiro[6,8-dihydro-5H-pyrazolo[4,3-c]azepine-7,4′-tetrahydropyran]-1-yl)propyl 3-fluoro-2-(trifluoromethyl)benzoate]",< 100
15,"CCc1nn(CCCOC(=O)c2c(F)cccc2C(F)(F)F)c2c1C(=O)NCC1(CCOCC1)C2 [Example 107, 3-(3-ethyl-4-oxo-spiro[6,8-dihydro-5H-pyrazolo[4,3-c]azepine-7,4′-tetrahydropyran]-1-yl)propyl 2-fluoro-6-(trifluoromethyl)benzoate]",< 100
16,"CCc1nn(CCCOC(=O)c2cc(F)cc(C(F)(F)F)c2)c2c1C(=O)NCC1(CCOCC1)C2 [Example 108, 3-(3-ethyl-4-oxo-spiro[6,8-dihydro-5H-pyrazolo[4,3-c]azepine-7,4′-tetrahydropyran]-1-yl)propyl 3-fluoro-5-(trifluoromethyl)benzoate]",< 100
17,"CCc1nn(CCCOC(=O)c2ccc(F)cc2C(F)(F)F)c2c1C(=O)NCC1(CCOCC1)C2 [Example 109, 3-(3-ethyl-4-oxo-spiro[6,8-dihydro-5H-pyrazolo[4,3-c]azepine-7,4′-tetrahydropyran]-1-yl)propyl 4-fluoro-2-(trifluoromethyl)benzoate]",< 100
18,"CCc1nn(CCCOC(=O)c2ccc(C(F)(F)F)c(F)c2)c2c1C(=O)NCC1(CCOCC1)C2 [Example 110, 3-(3-ethyl-4-oxo-spiro[6,8-dihydro-5H-pyrazolo[4,3-c]azepine-7,4′-tetrahydropyran]-1-yl)propyl 3-fluoro-4-(trifluoromethyl)benzoate]",< 100
19,"CCc1nn(CCCOC(=O)c2ccc(F)c(C(F)(F)F)c2)c2c1C(=O)NCC1(CCOCC1)C2 [Example 111, 3-(3-ethyl-4-oxo-spiro[6,8-dihydro-5H-pyrazolo[4,3-c]azepine-7,4′-tetrahydropyran]-1-yl)propyl 4-fluoro-3-(trifluoromethyl)benzoate]",< 100
20,"CCc1nn(CCCOC(=O)c2cc(C(F)(F)F)ccc2F)c2c1C(=O)NCC1(CCOCC1)C2 [Example 112, 3-(3-ethyl-4-oxo-spiro[6,8-dihydro-5H-pyrazolo[4,3-c]azepine-7,4′-tetrahydropyran]-1-yl)propyl 2-fluoro-5-(trifluoromethyl)benzoate]",< 100
21,"CCc1nn(CCCOC(=O)c2ccc(C(F)(F)F)cc2F)c2c1C(=O)NCC1(CCOCC1)C2 [Example 113, 3-(3-ethyl-4-oxo-spiro[6,8-dihydro-5H-pyrazolo[4,3-c]azepine-7,4′-tetrahydropyran]-1-yl)propyl 2-fluoro-4-(trifluoromethyl)benzoate]",< 100
22,"CCc1nn(CCCOC(=O)c2cccc(S(=O)(=O)CC)c2)c2c1C(=O)NCC1(CCOCC1)C2 [Example 114, 3-(3-ethyl-4-oxo-spiro[6,8-dihydro-5H-pyrazolo[4,3-c]azepine-7,4′-tetrahydropyran]-1-yl)propyl 3-ethylsulfonylbenzoate]",< 100
23,"CCc1nn(CCCOC(=O)c2ccc(S(=O)(=O)CC)cc2)c2c1C(=O)NCC1(CCOCC1)C2 [Example 115, 3-(3-ethyl-4-oxo-spiro[6,8-dihydro-5H-pyrazolo[4,3-c]azepine-7,4′-tetrahydropyran]-1-yl)propyl 4-ethylsulfonylbenzoate]",< 100
24,"CCc1nn(CCCOC(=O)c2cccc(S(=O)(=O)NC)c2)c2c1C(=O)NCC1(CCOCC1)C2 [Example 116, 3-(3-ethyl-4-oxo-spiro[6,8-dihydro-5H-pyrazolo[4,3-c]azepine-7,4′-tetrahydropyran]-1-yl)propyl 3-(methylsulfamoyl) benzoate]",< 100
25,"CCc1nn(CCCOC(=O)c2ccc(S(=O)(=O)NC)cc2)c2c1C(=O)NCC1(CCOCC1)C2 [Example 117, 3-(3-ethyl-4-oxo-spiro[6,8-dihydro-5H-pyrazolo[4,3-c]azepine-7,4′-tetrahydropyran]-1-yl)propyl 4-(methylsulfamoyl) benzoate]",< 100
26,"CCc1nn(CCCOC(=O)c2ccc(OC)c(C(F)(F)F)c2)c2c1C(=O)NCC1(CCOCC1)C2 [Example 118, 3-(3-ethyl-4-oxo-spiro[6,8-dihydro-5H-pyrazolo[4,3-c]azepine-7,4′-tetrahydropyran]-1-yl)propyI 4-methoxy-3-(trifluoromethyl)benzoate]",< 100
27,"CCc1nn(CCCOC(=O)c2cc(OC)ccc2C(F)(F)F)c2c1C(=O)NCC1(CCOCC1)C2 [Example 119, 3-(3-ethyl-4-oxo-spiro[6,8-dihydro-5H-pyrazolo[4,3-c]azepine-7,4′-tetrahydropyran]-1-yl)propyl 5-methoxy-2-(trifluoromethyl)benzoate]",< 100
28,"CCc1nn(CCCOC(=O)c2cc(OC)cc(C(F)(F)F)c2)c2c1C(=O)NCC1(CCOCC1)C2 [Example 120, 3-(3-ethyl-4-oxo-spiro[6,8-dihydro-5H-pyrazolo[4,3-c]azepine-7,4′-tetrahydropyran]-1-yl)propyl 3-methoxy-5-(trifluoromethyl)benzoate]",< 100
29,"CCc1nn(CCCOC(=O)c2ccc(Cl)cc2C(F)(F)F)c2c1C(=O)NCC1(CCOCC1)C2 [Example 121, 3-(3-ethyl-4-oxo-spiro[6,8-dihydro-5H-pyrazolo[4,3-c]azepine-7,4′-tetrahydropyran]-1-yl)propyl 4-chloro-2-(trifluoromethyl)benzoate]",< 100
30,"CCc1nn(CCCOC(=O)c2ccc(Cl)c(C(F)(F)F)c2)c2c1C(=O)NCC1(CCOCC1)C2 [Example 122, 3-(3-ethyl-4-oxo-spiro[6,8-dihydro-5H-pyrazolo[4,3-c]azepine-7,4′-tetrahydropyran]-1-yl)propyl 4-chloro-3-(trifluoromethyl)benzoate]",< 100
